Experiments:
Experiment in all cases: kinobeads assay with mass spectrometry detection of kinases (kinase selectivity profile)
Type in all cases: binding
[1] = molecular target: T1, kinases (kinome) (Homo sapiens, UniProt P78368); conditions: CK1g2 (CK1), IPI00297767
T1 construct: determined in kinobeads assays with mass spectrometry detection of kinases as described previously; endogenous in cells; host or cells: cell lysate
Text: (§1) The protein kinase complement of the human genome (the kinome) was described previously (Manning et al., 2002. Science 298(5600):1912-1934). Sequence accession numbers are defined by the International Protein Index (IPI) (Kersey et al., 2004. Proteomics 4(7):1985-1988).

[2] = molecular target: T2, kinases (kinome) (Homo sapiens, UniProt P15735); conditions: PHKg2 (CAMK), IPI00012891
T2 construct: determined in kinobeads assays with mass spectrometry detection of kinases as described previously; endogenous in cells; host or cells: cell lysate
Text: as §1

[3] = molecular target: T3, kinases (kinome) (Homo sapiens, UniProt Q13164); conditions: Erk5 (CMGC), IPI00910923
T3 construct: determined in kinobeads assays with mass spectrometry detection of kinases as described previously; endogenous in cells; host or cells: cell lysate
Text: as §1

[4] = molecular target: T4, kinases (kinome) (Homo sapiens, UniProt Q13627); conditions: DYRK1A (CMGC), IPI00014344
T4 construct: determined in kinobeads assays with mass spectrometry detection of kinases as described previously; endogenous in cells; host or cells: cell lysate
Text: as §1

[5] = molecular target: T5, kinases (kinome) (Homo sapiens, UniProt Q9BZL6); conditions: PKD2 (CAMK), IPI00009334
T5 construct: determined in kinobeads assays with mass spectrometry detection of kinases as described previously; endogenous in cells; host or cells: cell lysate
Text: as §1

[6] = molecular target: T6, kinases (kinome) (Homo sapiens, UniProt P06213); conditions: INSR (TK), IPI00025803
T6 construct: determined in kinobeads assays with mass spectrometry detection of kinases as described previously; endogenous in cells; host or cells: cell lysate
Text: as §1

[7] = molecular target: T7, kinases (kinome) (Homo sapiens, UniProt Q9H2G2); conditions: SLK (STE), IPI00022827
T7 construct: determined in kinobeads assays with mass spectrometry detection of kinases as described previously; endogenous in cells; host or cells: cell lysate
Text: as §1

[8] = molecular target: T8, kinases (kinome) (Homo sapiens, UniProt Q9Y6M4); conditions: CK1g3 (CK1), IPI00218437
T8 construct: determined in kinobeads assays with mass spectrometry detection of kinases as described previously; endogenous in cells; host or cells: cell lysate
Text: as §1

[9] = molecular target: T9, kinases (kinome) (Homo sapiens, UniProt Q99759); conditions: MAP3K3 (STE), IPI00181703
T9 construct: determined in kinobeads assays with mass spectrometry detection of kinases as described previously; endogenous in cells; host or cells: cell lysate
Text: as §1

[10] = molecular target: T10, kinases (kinome) (Homo sapiens, UniProt Q9UQM7); conditions: CaMK2a (CAMK), IPI00550056
T10 construct: determined in kinobeads assays with mass spectrometry detection of kinases as described previously; endogenous in cells; host or cells: cell lysate
Text: as §1

[11] = molecular target: T11, kinases (kinome) (Homo sapiens, UniProt Q16513); conditions: PKN2 (AGC), IPI00002804
T11 construct: determined in kinobeads assays with mass spectrometry detection of kinases as described previously; endogenous in cells; host or cells: cell lysate
Text: as §1

[12] = molecular target: T12, kinases (kinome) (Homo sapiens, UniProt P48426); conditions: PIP5K2A (Lipid Kinase), IPI00009688
T12 construct: determined in kinobeads assays with mass spectrometry detection of kinases as described previously; endogenous in cells; host or cells: cell lysate
Text: as §1

[13] = molecular target: T13, kinases (kinome) (Homo sapiens, UniProt Q8N752); conditions: CK1a2 (CK1), IPI00167096
T13 construct: determined in kinobeads assays with mass spectrometry detection of kinases as described previously; endogenous in cells; host or cells: cell lysate
Text: as §1

[14] = molecular target: T14, kinases (kinome) (Homo sapiens, UniProt Q86TW2); conditions: ADCK1 (Atypical), IPI00787836
T14 construct: determined in kinobeads assays with mass spectrometry detection of kinases as described previously; endogenous in cells; host or cells: cell lysate
Text: as §1

[15] = molecular target: T15, kinases (kinome) (Homo sapiens, UniProt Q13873); conditions: BMPR2 (TKL), IPI00783156
T15 construct: determined in kinobeads assays with mass spectrometry detection of kinases as described previously; endogenous in cells; host or cells: cell lysate
Text: as §1

Measured: IC50

T8 sequence (Q9Y6M4 whole entry): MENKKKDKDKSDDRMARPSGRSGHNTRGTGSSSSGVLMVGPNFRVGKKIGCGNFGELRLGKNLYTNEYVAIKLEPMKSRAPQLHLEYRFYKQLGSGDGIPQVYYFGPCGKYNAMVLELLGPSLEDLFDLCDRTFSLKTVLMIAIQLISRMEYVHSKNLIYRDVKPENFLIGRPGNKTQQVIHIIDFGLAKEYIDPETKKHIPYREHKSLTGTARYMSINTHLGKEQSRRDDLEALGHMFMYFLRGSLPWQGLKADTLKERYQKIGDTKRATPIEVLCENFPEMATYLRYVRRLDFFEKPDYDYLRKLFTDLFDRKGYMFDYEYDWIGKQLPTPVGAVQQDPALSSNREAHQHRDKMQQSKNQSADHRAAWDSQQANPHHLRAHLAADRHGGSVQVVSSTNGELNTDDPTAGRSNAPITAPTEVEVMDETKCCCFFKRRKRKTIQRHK
T2 sequence (P15735 whole entry): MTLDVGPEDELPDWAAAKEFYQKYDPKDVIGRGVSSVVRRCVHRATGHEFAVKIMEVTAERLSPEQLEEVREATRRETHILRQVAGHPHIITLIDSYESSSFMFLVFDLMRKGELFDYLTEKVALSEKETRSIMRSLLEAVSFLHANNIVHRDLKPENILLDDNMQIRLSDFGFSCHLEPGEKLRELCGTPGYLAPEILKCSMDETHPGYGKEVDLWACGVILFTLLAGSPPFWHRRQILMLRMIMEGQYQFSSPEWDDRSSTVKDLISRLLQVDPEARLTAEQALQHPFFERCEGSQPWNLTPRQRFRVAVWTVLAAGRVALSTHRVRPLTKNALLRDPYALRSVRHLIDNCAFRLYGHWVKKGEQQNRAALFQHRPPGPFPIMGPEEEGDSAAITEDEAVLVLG
T11 sequence (Q16513 whole entry): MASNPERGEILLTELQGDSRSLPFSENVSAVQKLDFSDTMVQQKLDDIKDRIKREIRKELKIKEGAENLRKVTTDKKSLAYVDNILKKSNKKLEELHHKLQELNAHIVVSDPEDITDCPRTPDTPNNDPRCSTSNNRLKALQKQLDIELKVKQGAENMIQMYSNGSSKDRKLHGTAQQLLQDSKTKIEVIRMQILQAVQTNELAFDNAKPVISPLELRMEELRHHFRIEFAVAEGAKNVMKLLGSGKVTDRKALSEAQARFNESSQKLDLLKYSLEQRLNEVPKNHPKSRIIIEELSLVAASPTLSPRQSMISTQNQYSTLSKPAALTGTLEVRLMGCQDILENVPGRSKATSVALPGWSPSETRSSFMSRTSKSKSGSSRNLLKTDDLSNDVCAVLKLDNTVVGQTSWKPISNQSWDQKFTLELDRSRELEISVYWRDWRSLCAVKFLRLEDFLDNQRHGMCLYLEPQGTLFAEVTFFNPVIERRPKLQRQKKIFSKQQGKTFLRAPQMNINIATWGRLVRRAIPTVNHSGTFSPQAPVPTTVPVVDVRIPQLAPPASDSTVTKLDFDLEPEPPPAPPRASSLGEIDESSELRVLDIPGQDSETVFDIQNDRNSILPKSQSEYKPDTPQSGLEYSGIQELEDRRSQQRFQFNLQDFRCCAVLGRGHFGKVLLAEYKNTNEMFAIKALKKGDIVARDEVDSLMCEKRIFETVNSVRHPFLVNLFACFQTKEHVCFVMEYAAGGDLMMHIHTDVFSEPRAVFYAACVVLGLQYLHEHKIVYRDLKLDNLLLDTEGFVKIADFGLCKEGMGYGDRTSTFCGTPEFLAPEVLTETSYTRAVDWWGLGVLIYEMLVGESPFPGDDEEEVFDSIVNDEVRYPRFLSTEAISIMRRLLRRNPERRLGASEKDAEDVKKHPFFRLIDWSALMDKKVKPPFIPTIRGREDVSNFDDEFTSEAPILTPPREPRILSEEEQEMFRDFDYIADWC
T9 sequence (Q99759 whole entry): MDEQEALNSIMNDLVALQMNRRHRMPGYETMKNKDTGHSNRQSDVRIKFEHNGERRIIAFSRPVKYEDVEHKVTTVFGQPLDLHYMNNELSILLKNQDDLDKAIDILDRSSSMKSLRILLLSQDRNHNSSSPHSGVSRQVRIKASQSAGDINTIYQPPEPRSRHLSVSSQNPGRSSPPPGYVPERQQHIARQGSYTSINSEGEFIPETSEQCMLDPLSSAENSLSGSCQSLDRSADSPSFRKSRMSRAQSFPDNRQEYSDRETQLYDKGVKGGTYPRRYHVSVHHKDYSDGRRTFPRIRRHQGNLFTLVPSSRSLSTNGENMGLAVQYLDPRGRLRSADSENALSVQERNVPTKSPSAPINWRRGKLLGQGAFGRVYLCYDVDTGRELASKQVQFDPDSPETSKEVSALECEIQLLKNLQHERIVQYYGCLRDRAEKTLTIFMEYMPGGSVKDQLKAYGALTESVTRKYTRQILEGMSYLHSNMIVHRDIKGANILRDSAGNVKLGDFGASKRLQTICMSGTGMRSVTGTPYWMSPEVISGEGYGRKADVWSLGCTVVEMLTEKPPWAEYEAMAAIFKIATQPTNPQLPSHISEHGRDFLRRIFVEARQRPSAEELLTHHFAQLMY
T5 sequence (Q9BZL6 whole entry): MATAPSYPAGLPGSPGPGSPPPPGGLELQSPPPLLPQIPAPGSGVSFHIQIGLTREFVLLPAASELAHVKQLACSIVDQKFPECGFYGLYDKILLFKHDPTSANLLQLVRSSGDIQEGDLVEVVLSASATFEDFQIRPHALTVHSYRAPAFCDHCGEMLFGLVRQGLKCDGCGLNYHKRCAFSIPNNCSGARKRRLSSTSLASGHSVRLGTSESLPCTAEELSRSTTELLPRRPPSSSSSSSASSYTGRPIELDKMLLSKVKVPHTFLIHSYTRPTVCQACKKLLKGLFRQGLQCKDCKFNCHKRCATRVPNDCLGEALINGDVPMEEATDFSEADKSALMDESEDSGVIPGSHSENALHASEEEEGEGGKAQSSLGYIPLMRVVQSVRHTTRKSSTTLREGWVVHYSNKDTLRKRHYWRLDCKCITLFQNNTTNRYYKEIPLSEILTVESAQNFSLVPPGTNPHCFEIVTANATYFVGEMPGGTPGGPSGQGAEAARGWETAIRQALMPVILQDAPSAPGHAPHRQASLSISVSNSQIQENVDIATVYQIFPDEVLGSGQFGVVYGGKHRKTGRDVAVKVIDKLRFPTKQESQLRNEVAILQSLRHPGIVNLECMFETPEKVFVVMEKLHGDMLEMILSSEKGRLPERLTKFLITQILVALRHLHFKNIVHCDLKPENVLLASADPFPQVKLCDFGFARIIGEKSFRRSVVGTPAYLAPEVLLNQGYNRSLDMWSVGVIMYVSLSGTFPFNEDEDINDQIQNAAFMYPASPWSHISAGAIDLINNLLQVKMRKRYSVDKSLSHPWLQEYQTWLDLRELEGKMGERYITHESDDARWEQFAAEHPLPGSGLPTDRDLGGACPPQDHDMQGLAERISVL
T6 sequence (P06213 28-1382): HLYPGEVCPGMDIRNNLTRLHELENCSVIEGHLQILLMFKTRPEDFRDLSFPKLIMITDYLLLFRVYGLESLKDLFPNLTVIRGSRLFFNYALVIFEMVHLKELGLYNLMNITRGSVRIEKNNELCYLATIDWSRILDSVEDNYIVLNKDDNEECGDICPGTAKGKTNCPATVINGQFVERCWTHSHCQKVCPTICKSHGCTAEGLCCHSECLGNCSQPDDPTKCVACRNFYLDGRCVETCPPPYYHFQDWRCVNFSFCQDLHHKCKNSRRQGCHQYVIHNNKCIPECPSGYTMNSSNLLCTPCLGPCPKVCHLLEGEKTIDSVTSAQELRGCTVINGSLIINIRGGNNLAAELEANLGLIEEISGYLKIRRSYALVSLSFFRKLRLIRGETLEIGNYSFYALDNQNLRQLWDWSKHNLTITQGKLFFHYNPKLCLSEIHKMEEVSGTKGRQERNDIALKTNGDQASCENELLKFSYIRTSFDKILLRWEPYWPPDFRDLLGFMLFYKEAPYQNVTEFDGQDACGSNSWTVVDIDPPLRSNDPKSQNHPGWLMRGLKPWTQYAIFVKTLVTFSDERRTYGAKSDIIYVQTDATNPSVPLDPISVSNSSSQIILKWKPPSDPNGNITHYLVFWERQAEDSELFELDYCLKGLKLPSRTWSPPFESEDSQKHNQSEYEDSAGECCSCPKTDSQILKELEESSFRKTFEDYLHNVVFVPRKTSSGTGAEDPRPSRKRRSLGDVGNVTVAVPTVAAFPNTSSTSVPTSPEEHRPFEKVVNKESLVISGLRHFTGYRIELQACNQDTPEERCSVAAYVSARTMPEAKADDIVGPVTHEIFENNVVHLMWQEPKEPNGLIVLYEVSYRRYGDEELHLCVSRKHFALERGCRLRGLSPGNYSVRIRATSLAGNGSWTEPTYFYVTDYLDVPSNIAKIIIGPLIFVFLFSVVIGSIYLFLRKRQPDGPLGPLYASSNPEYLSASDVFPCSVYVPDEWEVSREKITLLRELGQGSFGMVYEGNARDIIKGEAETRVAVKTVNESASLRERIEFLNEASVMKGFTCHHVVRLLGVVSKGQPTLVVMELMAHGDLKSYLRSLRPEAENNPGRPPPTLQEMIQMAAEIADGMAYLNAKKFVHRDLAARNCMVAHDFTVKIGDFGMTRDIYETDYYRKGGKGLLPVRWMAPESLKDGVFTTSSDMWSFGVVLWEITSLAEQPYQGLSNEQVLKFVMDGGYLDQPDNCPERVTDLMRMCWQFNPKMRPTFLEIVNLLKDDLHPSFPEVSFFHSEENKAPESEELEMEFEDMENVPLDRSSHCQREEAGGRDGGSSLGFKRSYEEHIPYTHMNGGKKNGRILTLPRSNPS
T13 sequence (Q8N752 whole entry): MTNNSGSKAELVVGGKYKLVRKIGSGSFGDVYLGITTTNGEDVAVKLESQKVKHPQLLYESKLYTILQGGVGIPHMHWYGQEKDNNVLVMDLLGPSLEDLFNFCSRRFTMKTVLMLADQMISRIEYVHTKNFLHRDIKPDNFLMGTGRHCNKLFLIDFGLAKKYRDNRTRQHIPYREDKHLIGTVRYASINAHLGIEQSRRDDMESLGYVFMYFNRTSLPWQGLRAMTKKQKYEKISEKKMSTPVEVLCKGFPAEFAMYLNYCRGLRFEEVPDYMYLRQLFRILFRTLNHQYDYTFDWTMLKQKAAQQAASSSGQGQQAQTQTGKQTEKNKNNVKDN

C[C@H]1COCCN1c1nc(-c2ccc(NC(=O)NC3CC3)cc2)cc(-c2cccnc2S(C)(=O)=O)n1 [Example 46, (S)-1-cyclopropyl-3-(4-(2-(3-methylmorpholino)-6-(2-(methylsulfonyl)pyridin-3-yl)pyrimidin-4-yl)phenyl)urea]
> 10 µM: [1]

C[C@H]1COCCN1c1nc(-c2ccc(NC(=O)NC3CC3)cc2)cc(-c2ccccc2S(C)(=O)=O)n1 [Example 4, (S)-1-cyclopropyl-3-(4-(2-(3-methylmorpholino)-6-(2-(methylsulfonyl)phenyl)pyrimidin-4-yl)phenyl)urea]
> 10 µM: [2] | [3] | [4] | [5] | [6] | [7] | [8]

C[C@H]1COCCN1c1nc(-c2ccc(NC(=O)N[C@H]3CCC[C@@H]3O)cc2)cc(-c2cc(F)ccc2S(C)(=O)=O)n1 [Example 76, 1-(4-(6-(5-fluoro-2-(methylsulfonyl)phenyl)-2-((S)-3-methylmorpholino)pyrimidin-4-yl)phenyl)-3-((1S,2S)-2-hydroxycyclopentyl)urea]
> 10 µM: [9]

CCNC(=O)Nc1ccc(-c2cc(-c3ccccc3C#N)nc(N3CCOC[C@@H]3C)n2)cc1 [Example 8, (S)-1-(4-(6-(2-cyanophenyl)-2-(3-methylmorpholino)pyrimidin-4-yl)phenyl)-3-ethylurea]
> 10 µM: [10] | [8]

C[C@H]1COCCN1c1cc(-c2ccccn2)nc(-c2ccc(NC(=O)NCCO)cc2)n1 [Example 43, (S)-1-(2-hydroxyethyl)-3-(4-(4-(3-methylmorpholino)-6-(pyridin-2-yl)pyrimidin-2-yl)phenyl)urea]
> 10 µM: [11]

C[C@H]1COCCN1c1nc(-c2ccc(NC(=O)NC3CC3)cc2)cc(-c2cc(F)ccc2S(C)(=O)=O)n1 [Example 40, (S)-1-cyclopropyl-3-(4-(6-(5-fluoro-2-(methylsulfonyl)phenyl)-2-(3-methylmorpholino)pyrimidin-4-yl)phenyl)urea]
not listed: [1] | [3] | [4] | [7] | [8] | [10]
> 10 µM: all other assays above
